Source: publication PMC4605392 (The international journal of biochemistry & cell biology, 2010)
Several values for one entry are separate records, joined by “and”; a condition that tells them apart may be missing. Identical values can stand only once. Counter-ions that a name gives are not always drawn. Like-named read-outs stand apart in the source and are kept apart here.

How the values were obtained:
[1] = ref Nangia et al., 1996; cited from earlier work
[2] = biological target: [^3H]imipramine binding sites at the human α4β2 AChR (Homo sapiens, UniProt P17787+P43681); settings: for ΔG^20: calculated from Ki, Eq. (4), 293 K
human α4β2 AChR = human α4β2 AChR (Homo sapiens, UniProt P17787+P43681); assay: cell-based; type: cell-based
[3] = therapeutic doses, ref Glotzbach and Preskorn, 1982; cited from earlier work
hα4β2 AChR [4] = biological target: T1, hα4β2 AChR (Homo sapiens, UniProt P17787+P43681); assay: Thermodynamic parameters of imipramine binding; settings: for Ea (dissociation process): Arrhenius plot; for ΔH°: van't Hoff plot; for ΔG^20: Eq. (8); for ΔH^+ (enthalpy change of the transition state): Eq. (10)
hα4β2 AChR [5] = biological target: T1, hα4β2 AChR; type: binding; settings: for koff: 20 °C; for kon: kon = koff·Ka
hα4β2 AChR [6] = biological target: T1, hα4β2 AChR; assay: Equilibrium binding of [3H]imipramine to HEK293-hα4β2 AChR membranes
[7] = desensitized state, presence of 1 μM (−)-cytisine
[8] = resting state, presence of k-BTx
[9] = Ki, resting state, absence of k-BTx (no ligand)
[10] = resting state, absence of k-BTx (no ligand)
[11] = resting state, absence of k-BTx
[12] = Epibatidine treated column (desensitized state)
[13] = κ-BTx treated column (resting state)

CNC1(C)C2CCC(C2)C1(C)C (racemic) [(±)-Mecamylamine, (±)-mecamylamine hydrochloride]
pKa [1]: 11.4
IC50 ([2]; IC50, desensitized state, presence of 1 μM (−)-cytisine): 209000 ± 34000 nM
IC50 ([2]; IC50, resting state, presence of k-BTx): 135000 ± 19000 nM
inhibition of specific [3H]imipramine binding ([2]; at maximum concentration tested, resting and desensitized states): ~ 70%
nH (Hill coefficient) [2, 7]: 0.58 ± 0.06
nH (Hill coefficient) [2, 8]: 0.53 ± 0.05
IC50 (human α4β2 AChR): 3000 ± 700 nM
nH (Hill coefficient) (human α4β2 AChR): 1.17 ± 0.12

Clc1ccc(C2CC3CCC2N3)cn1 (racemic) [(±)-epibatidine, (±)-Epibatidine]
nH (Hill coefficient) (human α4β2 AChR; activation of hα4β2 AChR, Ca2+ influx in HEK293-hα4β2 cells): 1.03 ± 0.04

CN(C)CCC=C1c2ccccc2CCc2ccccc21 [Amitriptyline, amitriptyline hydrochloride]
concentration in the rat brain [3]: 1000 to 10000 nM
Ki [2, 9]: 1100 ± 100 nM
nH (Hill coefficient) [2, 10]: 0.98 ± 0.11
ΔG^20 [2, 11]: -7.96 ± 0.072 kcal/mol
IC50 (human α4β2 AChR): 2200 ± 600 nM
nH (Hill coefficient) (human α4β2 AChR): 1.50 ± 0.08

CN(C)CCC=C1c2ccccc2COc2ccccc21 [Doxepin, doxepin hydrochloride]
Ki [2]: 2100 ± 200 nM
nH (Hill coefficient) [2, 10]: 0.73 ± 0.05
ΔG^20 [2, 11]: -7.6 ± 0.072 kcal/mol
IC50 (human α4β2 AChR): 6800 ± 1600 nM
nH (Hill coefficient) (human α4β2 AChR): 1.32 ± 0.29

CN(C)CCCN1c2ccccc2CCc2ccccc21 [Imipramine, Imipramine hydrochloride]
−TΔS° (hα4β2 AChR [4]; [12]): -5.93 kcal/mol and -5.93 ± 0.382 kcal/mol
Ea (dissociation process) (hα4β2 AChR [4]; [12]): 2.96 ± 0.263 kcal/mol
ΔH° (hα4β2 AChR [4]; [12]): -2.65 kcal/mol and -2.65 ± 0.382 kcal/mol
ΔG^20 (hα4β2 AChR [4]; [12]): -8.58 ± 0.478 kcal/mol
ΔH^+ (enthalpy change of the transition state) (hα4β2 AChR [4]; [12]): 2.37 ± 0.263 kcal/mol
−TΔS° (hα4β2 AChR [4]; [13]): -3.85 ± 0.55 kcal/mol
Ea (dissociation process) (hα4β2 AChR [4]; [13]): 4.54 ± 0.454 kcal/mol
ΔH° (hα4β2 AChR [4]; [13]): -4.76 ± 0.55 kcal/mol
ΔG^20 (hα4β2 AChR [4]; [13]): -8.56 ± 0.693 kcal/mol
ΔH^+ (enthalpy change of the transition state) (hα4β2 AChR [4]; [13]): 3.97 ± 0.454 kcal/mol
Ki ([2]; Ki, desensitized state, presence of 1 μM (−)-cytisine): 970 ± 100 nM
Ki [2, 9]: 1100 ± 100 nM
Ki ([2]; Ki, resting state, presence of 0.1 μM k-BTx): 930 nM
nH (Hill coefficient) [2, 7]: 0.84 ± 0.07
ΔG^20 ([2]; desensitized state, presence of (−)-cytisine): -8.05 ± 0.048 kcal/mol
nH (Hill coefficient) [2, 10]: 0.73 ± 0.04
ΔG^20 [2, 11]: -7.98 ± 0.048 kcal/mol
nH (Hill coefficient) [2, 8]: 0.87 ± 0.07
IC50 (human α4β2 AChR): 5400 ± 1200 nM
nH (Hill coefficient) (human α4β2 AChR): 1.39 ± 0.13
Ka (hα4β2 AChR [5]; [12]): 2.52 ± 0.08 µM⁻¹
koff (hα4β2 AChR [5]; [12]): 0.076 ± 0.002 s⁻¹
ΔG^20 (hα4β2 AChR [5]; Epibatidine treated column (desensitized state), Eq. (4)): -8.58 ± 0.024 kcal/mol
kon (hα4β2 AChR [5]; [12]): 192000 ± 3000 M⁻¹ s⁻¹
Ka (hα4β2 AChR [5]; [13]): 2.54 ± 0.07 µM⁻¹
koff (hα4β2 AChR [5]; [13]): 0.09 ± 0.001 s⁻¹
kon (hα4β2 AChR [5]; [13]): 229000 ± 8000 M⁻¹ s⁻¹

[^3H]Imipramine
specific activity (Bmax, imipramine binding sites) (hα4β2 AChR [6]; HEK293-hα4β2 membranes, x-intersect of Rosenthal-Scatchard plot): 8.6 ± 0.5 pmol/mg protein
Kd (hα4β2 AChR [6]; resting/no ligand state, Rosenthal-Scatchard plot, 2 h at RT): 830 ± 80 nM
